Reference: the supplement of paper PMC7840683
Structures can show the parent of a compound that is named as a salt. ± gives the standard deviation of the averaged measurements.

Test system: HepaRG
Experiment: LDH release cytotoxicity, % of total lysis control; higher = more cytotoxic
Settings: 48 h
Summary of the method: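 The CytoTox-ONE kit was used to read LDH in 50 µL spent medium as resorufin fluorescence on a Tecan Safire, with 0.1% Triton X added to total lysis wells. Beforehand, single-lot HepaRG cells on collagen I-coated 96-well plates had been exposed in duplicate for 48 h to eight-point half-log series (top 100 µM) in serum-free induction medium containing 0.5% DMSO. Percent cytotoxicity was normalized against on-plate vehicle and total lysis controls and averaged over duplicates.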

Structure (SMILES)	LDH release cytotoxicity (0.031623 µM) [%]	LDH release cytotoxicity (0.1 µM) [%]	LDH release cytotoxicity (0.316228 µM) [%]	LDH release cytotoxicity (1 µM) [%]	LDH release cytotoxicity (3.16228 µM) [%]	LDH release cytotoxicity (10 µM) [%]	LDH release cytotoxicity (31.6228 µM) [%]	LDH release cytotoxicity (100 µM) [%]	LDH release cytotoxicity (0.03162 µM) [%]	LDH release cytotoxicity (0.3162278 µM) [%]	LDH release cytotoxicity (0.0322552 µM) [%]	LDH release cytotoxicity (0.102 µM) [%]	LDH release cytotoxicity (0.322552 µM) [%]	LDH release cytotoxicity (1.02 µM) [%]	LDH release cytotoxicity (3.2255232 µM) [%]	LDH release cytotoxicity (10.2 µM) [%]	LDH release cytotoxicity (32.2552 µM) [%]	LDH release cytotoxicity (102 µM) [%]
CCC[CH2][Sn]([Cl])([CH2]CCC)[CH2]CCC [Tributyltin chloride]	0.564 ± 1.9	-3.6 ± 1.2	-2.2 ± 0.71	-2.91 ± 0.74	-3.46 ± 0.11	-2.765 ± 0.018	-1.81 ± 0.11	0.00684 ± 1.1	–	–	–	–	–	–	–	–	–	–
C=C(C)C(=O)[O][Sn]([CH2]CCC)([CH2]CCC)[CH2]CCC [Tributyltin methacrylate]	–	-1.27 ± 0.21	–	-1.5 ± 0.47	37.9 ± 0.45	56.38 ± 0.14	55.58 ± 0.35	59.2 ± 1.2	-1.27 ± 0.67	-0.912 ± 0.44	–	–	–	–	–	–	–	–
COP(=O)(OC)C(O)C(Cl)(Cl)Cl (configuration not stated) [Trichlorfon]	–	-1.39 ± 0.081	–	-1.43 ± 0.39	19.7 ± 0.21	73.1 ± 2.5	76.8 ± 2.2	76.7 ± 1.5	0.0437 ± 1.6	-0.758 ± 0.2	–	–	–	–	–	–	–	–
O=C(O)C(Cl)(Cl)Cl [Trichloroacetic acid]	–	-2.11 ± 0.056	–	-2.27 ± 0.54	-2.74 ± 0.85	-2.07 ± 0.18	-1.13 ± 0.15	0.84 ± 1.1	-0.739 ± 0.85	-2.765 ± 0.0095	–	–	–	–	–	–	–	–
O=C(Nc1ccc(Cl)cc1)Nc1ccc(Cl)c(Cl)c1 [Triclocarban]	–	-1.67 ± 0.93	–	-1.44 ± 1.4	-1.83 ± 0.3	-0.606 ± 2.2	-1.24 ± 0.34	0.167 ± 2	-2.18 ± 0.41	-1.81 ± 0.65	–	–	–	–	–	–	–	–
O=C(O)COc1nc(Cl)c(Cl)cc1Cl [Triclopyr]	–	-2.08 ± 0.22	–	-1.77 ± 0.51	-1.2 ± 0.3	0.578 ± 0.15	34.7 ± 3.1	45.6 ± 2.5	-0.728 ± 0.43	-1.59 ± 0.14	–	–	–	–	–	–	–	–
Oc1cc(Cl)ccc1Oc1ccc(Cl)cc1Cl [Triclosan]	–	–	–	–	–	–	–	–	–	–	-1.38 ± 0.38	-2.17 ± 0.73	-2.07 ± 0.23	-1.47 ± 0.84	-2.05 ± 1.2	-1.6 ± 1.3	-1.09 ± 1.9	-1.09 ± 0.31
CCCCCCCCCCCCCN1CC(C)OC(C)C1 (configuration not stated) [Tridemorph]	–	–	–	–	–	–	–	–	–	–	-2.04 ± 1.1	-2.33 ± 0.85	-1.56 ± 0.26	-2.46 ± 1	-1.14 ± 0.89	-0.844 ± 0.88	-0.534 ± 0.43	71.8 ± 7.5
OCCN(CCO)CCO [Triethanolamine]	–	-0.911 ± 0.6	–	-1.26 ± 0.23	-1.19 ± 1.4	-0.416 ± 1.2	-0.346 ± 0.72	1.04 ± 0.38	-0.32 ± 0.27	-1.61 ± 0.09	–	–	–	–	–	–	–	–
CCCCCCCC[Si](OCC)(OCC)OCC [Triethoxyoctylsilane]	–	0.171 ± 0.31	–	-0.327 ± 0.22	0.39 ± 0.57	0.433 ± 0.79	0.376 ± 0.72	1.59 ± 0.21	-0.684 ± 0.49	-0.00576 ± 0.17	–	–	–	–	–	–	–	–
CCOC(=O)CC(O)(CC(=O)OCC)C(=O)OCC [Triethyl citrate]	–	-0.568 ± 0.47	–	-0.693 ± 0.16	-0.115 ± 0.89	0.0535 ± 0.21	-0.467 ± 0.89	1.14 ± 0.85	-0.555 ± 0.32	0.176 ± 0.48	–	–	–	–	–	–	–	–
CCCCC(CC)C(=O)OCCOCCOCCOC(=O)C(CC)CCCC (configuration not stated) [Triethylene glycol bis(2-ethylhexanoate)]	–	-3.93 ± 0.075	–	-3.69 ± 0.87	-3.81 ± 1.2	-4.01 ± 1.4	-5.53 ± 4	-1.89 ± 0.23	-2.57 ± 0.42	-3.45 ± 0.14	–	–	–	–	–	–	–	–
CC(=O)OCCOCCOCCOC(C)=O [Triethylene glycol diacetate]	–	-1.98 ± 0.077	–	-1.55 ± 0.41	0.0849 ± 2	-1.35 ± 0.28	-0.553 ± 0.033	1.55 ± 0.07	-2	-1.83 ± 0.78	–	–	–	–	–	–	–	–
COCCOCCOCCOC [Triethylene glycol dimethyl ether]	–	-4.26 ± 1.7	–	-3.35 ± 0.35	-3.81 ± 0.89	-3.38 ± 0.75	-2.47 ± 1.8	1.14 ± 1.8	-0.0874 ± 2	-4.61 ± 0.24	–	–	–	–	–	–	–	–
OCCOCCOCCO [Triethylene glycol]	–	-1.04 ± 0.017	–	-1.23 ± 0.56	-1.32 ± 0.055	-0.871 ± 0.14	-1.1 ± 0.18	0.204 ± 0.36	-0.151 ± 1	-0.871 ± 0.11	–	–	–	–	–	–	–	–
CON=C(C(=O)OC)c1ccccc1CON=C(C)c1cccc(C(F)(F)F)c1 [Trifloxystrobin]	–	-0.478 ± 0.33	–	0.0357 ± 0.72	-0.301 ± 0.36	0.277 ± 0.53	0.163 ± 1.6	1.57 ± 1.4	-0.083 ± 0.59	-0.545 ± 0.8	–	–	–	–	–	–	–	–
COc1cc(OC)nc(NC(=O)NS(=O)(=O)c2ncccc2OCC(F)(F)F)n1 [Trifloxysulfuron-sodium]	–	-0.662 ± 0.68	–	-1.75 ± 1.3	-1.37 ± 0.17	-1.12 ± 0.68	-1.62 ± 0.26	0.885 ± 0.33	-1.39 ± 0.15	-1.7 ± 1.1	–	–	–	–	–	–	–	–
CCCOCC(=Nc1ccc(Cl)cc1C(F)(F)F)n1ccnc1 [Triflumizole]	–	-1.15 ± 0.39	–	-0.497 ± 0.18	-0.543 ± 1	-0.414 ± 0.008	-0.332 ± 0.2	0.335 ± 0.21	-0.709 ± 0.69	-0.687 ± 0.077	–	–	–	–	–	–	–	–
CCCN(CCC)c1c([N+](=O)[O-])cc(C(F)(F)F)cc1[N+](=O)[O-] [Trifluralin]	–	-5.31 ± 0.81	–	-6.43 ± 1.1	-5.85 ± 1.3	-6.17 ± 0.86	-2.1 ± 0.44	66.3 ± 2.5	-4.73 ± 0.13	-5.66 ± 0.27	–	–	–	–	–	–	–	–
